Results: patent publication US7794994B2 (Kemeta, LLC, priority 2001, dated 2010)

What was measured:
[1] = test system: 3-enzyme system (S-ADH coupled to lactate dehydrogenase and pyruvate oxidase); assay: S-ADH coupled to H2O2 formation electrochemical assay (3-enzyme system), interference compounds; type: biochemical, X. autotrophicus Py2; settings: Acetone plus 10 mM ethanol, 50 μM isopropanol or 50 μM isobutanol; data not shown
Experimental: Secondary alcohol dehydrogenase coupled to H2O2 formation electrochemical assay. […] Before measurements the electrode surface was polished using Al2O3 paste for 1 min. and then rinsed with deionized water, sonicated for 1 min. and rinsed with water again. The polished Pt electrode was then pretreated electrochemically by applying 10 cycles of 100 mV/s from +200 mV to +900 mV. All potentials were referenced versus a Ag/AgCl electrode (BAS part number MF-2078). Assays contained potassium phosphate (100 mM, pH 7.2), purified S-ADH (1 U/mL), NADH (201 μM), lactate (100 mM), lactate dehydrogenase (5 U/mL), pyruvate oxidase (4 U/mL), flavin adenine dinucleotide (0.01 mM), cocarboxylase (0.2 mM), in a total volume of 0.5 mL. […] After a 2 min. incubation period, the potential was stepped from open circuit to 350 mV.

[2] = constant perfusion at 1.36 mmol/min. for three hours; cited from earlier work

SMILES: CC(C)CO [isobutanol]
- interference with the acetone measurement (current response) [1]: do not interfere

SMILES: CC(=O)CC(=O)[O-].[Na+] [Na acetoacetate]
- blood ketone body concentration at the end of perfusion [2]: 3 µmol·mL
